According to patent US8598374B2, “GPR120 receptor agonists and uses thereof” (Metabolex, Inc, priority 2008, dated 2013):

target: T1, human GPR120 (Homo sapiens, UniProt Q5NUL3); assay: Intracellular Ca2+ assay (FLIPR Calcium 4, Flexstation) in human GPR120 stable cell line; format: cell-based; settings: % activity at 2.5 μM compared to the maximal activity of the compound of Example 25 at 2.5 μM; HEK293 cells co-expressing Gqi5
T1 construct: Flag (DYKDDDDK) (N); host or cells: HEK293 cells co-expressing Gqi5
T1 sequence (Q5NUL3 1-361): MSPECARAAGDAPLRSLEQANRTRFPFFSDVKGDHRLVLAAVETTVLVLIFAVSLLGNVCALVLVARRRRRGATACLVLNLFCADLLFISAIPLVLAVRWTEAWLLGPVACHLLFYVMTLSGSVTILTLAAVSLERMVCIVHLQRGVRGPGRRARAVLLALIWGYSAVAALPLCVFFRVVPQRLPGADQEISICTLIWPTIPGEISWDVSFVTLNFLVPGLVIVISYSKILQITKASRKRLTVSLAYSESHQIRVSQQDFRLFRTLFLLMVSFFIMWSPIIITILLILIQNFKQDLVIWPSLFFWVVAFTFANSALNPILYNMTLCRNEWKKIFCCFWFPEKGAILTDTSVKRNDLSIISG
Summary of the method: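 HEK293 cells co-expressing Gqi5 and stably expressing Flag-tagged human GPR120 were seeded at 70,000 cells per well in poly-D-lysine coated 96 well plates and loaded with FLIPR Calcium 4 dye for 50 minutes at 37° C. On a Flexstation, compound-induced fluorescence (excitation 485 nm, emission 525) was recorded for 90 seconds. Percent activity was expressed against a reference agonist's maximal activity at 2.5 μM, set as 100%.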

SMILES	% Activity (Ex. 25 Reference Compound) [%]
Cc1cc(OCc2cc(F)cc3c2OC(C)(C)C3)c(C)cc1CCC(=O)O [Example 206, 3-(4-((5-fluoro-2,2-dimethyl-2,3-dihydrobenzofuran-7-yl)methoxy)-2,5-dimethylphenyl)propanoic acid]	111.45
CC(C)Oc1ncccc1COc1ccc2c(c1)CCC2CC(=O)O (stereo not shown) [Example 259, 2-(5-((2-isopropoxypyridin-3-yl)methoxy)-2,3-dihydro-1H-inden-1-yl)acetic acid]	118.5
CC1(C)Cc2cc(F)cc(COc3ccc4cc(C(=O)O)ccc4c3)c2O1 [Example 114, 6-((5-fluoro-2,2-dimethyl-2,3-dihydrobenzofuran-7-yl)methoxy)-2-naphthoic acid]	123.58
Cc1c(CCC(=O)O)ccc(OCc2cc(F)cc3c2OC(C)(C)C3)c1C [Example 208, 3-(4-((5-fluoro-2,2-dimethyl-2,3-dihydrobenzofuran-7-yl)methoxy)-2,3-dimethylphenyl)propanoic acid]	147.47
CC1(C)Cc2cc(Cl)cc(COc3ccc4c(c3)CC(C(=O)O)C4)c2O1 (stereo not shown) [Example 112, 5-((5-chloro-2,2-dimethyl-2,3-dihydrobenzofuran-7-yl)methoxy)-2,3-dihydro-1H-indene-2-carboxylic acid]	115.42
C[C@H](Cc1ccc(OCc2cc(Cl)cc3c2OC(C)(C)C3)c(C(F)(F)F)c1)C(=O)O [Example 143, (R)-3-(4-((5-chloro-2,2-dimethyl-2,3-dihydrobenzofuran-7-yl)methoxy)-3-(trifluoromethyl)phenyl)-2-methylpropanoic acid]	90.56
CC1(C)Cc2cc(F)cc(COc3ccc(C4CC4C(=O)O)cc3)c2O1 (single isomer, unassigned) [Example 131A, 2-(4-((5-fluoro-2,2-dimethyl-2,3-dihydrobenzofuran-7-yl)methoxy)phenyl)cyclopropanecarboxylic acid]	103.75
CC(Cc1ccc(OCc2cc(Cl)cc3c2OC2(CCCC2)C3)cc1)C(=O)O (stereo not shown) [Example 159, 3-(4-((5-chloro-3H-spiro[benzofuran-2,1′-cyclopentane]-7-yl)methoxy)phenyl)-2-methylpropanoic acid]	164.79
COc1cc(CCC(=O)O)c(Br)cc1OCc1cc(F)cc2c1OC(C)(C)C2 [Example 56, 3-(2-bromo-4-((5-fluoro-2,2-dimethyl-2,3-dihydrobenzofuran-7-yl)methoxy)-5-methoxyphenyl)propanoic acid]	108.51
CC(Cc1ccc(OCc2cc(OC(F)(F)F)cc3c2OC(C)(C)C3)cc1)C(=O)O (stereo not shown) [Example 124, 3-(4-((2,2-dimethyl-5-(trifluoromethoxy)-2,3-dihydrobenzofuran-7-yl)methoxy)phenyl)-2-methylpropanoic acid]	131.64
CC(Cc1ccc(NC(=O)c2cc(F)cc3c2OC(C)(C)C3)cc1)C(=O)O (stereo not shown) [Example 68, 3-(4-(5-fluoro-2,2-dimethyl-2,3-dihydrobenzofuran-7-carboxamido)phenyl)-2-methylpropanoic acid]	69.03
CC(Cc1ccc(OCc2cc(F)cc3c2OCOC3)cc1)C(=O)O (stereo not shown) [Example 45, 3-(4-((6-fluoro-4H-benzo[d][1,3]dioxin-8-yl)methoxy)phenyl)-2-methylpropanoic acid]	79.58
COc1cccc(-c2cc(COc3ccc(CC(C)C(=O)O)cc3)c3c(c2)CC(C)(C)O3)c1 (stereo not shown) [Example 86, 3-(4-((5-(3-methoxyphenyl)-2,2-dimethyl-2,3-dihydrobenzofuran-7-yl)methoxy)phenyl)-2-methylpropanoic acid]	5.23
CC1(C)Cc2cc(F)cc(COc3ccc(CCC(=O)O)c(OC(F)(F)F)c3)c2O1 [Example 136, 3-(4-((5-fluoro-2,2-dimethyl-2,3-dihydrobenzofuran-7-yl)methoxy)-2-(trifluoromethoxy)phenyl)propanoic acid]	140.51
CC1(C)Cc2cc(Cl)cc(COc3ccc(CCC(=O)O)c(-c4ccccc4)c3)c2O1 [Example 71, 3-(5-((5-chloro-2,2-dimethyl-2,3-dihydrobenzofuran-7-yl)methoxy)-[1,1′-biphenyl]-2-yl)propanoic acid]	133.8
CC(C)Oc1cc(OCc2cc(Cl)cc3c2OC(C)(C)C3)ccc1CCC(=O)O [Example 116, 3-(4-((5-chloro-2,2-dimethyl-2,3-dihydrobenzofuran-7-yl)methoxy)-2-isopropoxyphenyl)propanoic acid]	145.6
CCN(CC)c1cc(COc2ccc(CC(C)C(=O)O)cc2)c2c(c1)CC(C)(C)O2 (stereo not shown) [Example 89, 3-(4-((5-(diethylamino)-2,2-dimethyl-2,3-dihydrobenzofuran-7-yl)methoxy)phenyl)-2-methylpropanoic acid]	82.28
CC(Cc1ccc(NCc2cc(F)cc3c2OC(C)(C)C3)cc1)C(=O)O (stereo not shown) [Example 67]	141.82
CC1(C)Cc2cc(Cl)cc(COc3ccc(CCC(=O)O)c(F)c3)c2O1 [Example 53, 3-(4-((5-chloro-2,2-dimethyl-2,3-dihydrobenzofuran-7-yl)methoxy)-2-fluorophenyl)-propanoic acid]	143.19
CC(Cc1ccc(OCc2cc(-c3ccc(Cl)cc3)cc3c2OC(C)(C)C3)cc1)C(=O)O (stereo not shown) [Example 82, 3-(4-((5-(4-chlorophenyl)-2,2-dimethyl-2,3-dihydrobenzofuran-7-yl)methoxy)phenyl)-2-methylpropanoic acid]	24
C[C@H](Cc1ccc(OCc2cc(Cl)cc3c2OC(C)(C)C3)c(F)c1)C(=O)O [Example 141, (R)-3-(4-((5-chloro-2,2-dimethyl-2,3-dihydrobenzofuran-7-yl)methoxy)-3-fluorophenyl)-2-methylpropanoic acid]	143.3
[2H]C1([2H])c2cc(Cl)cc(COc3ccc(CC(C)C(=O)O)cc3C(F)(F)F)c2OC1(C)C (stereo not shown) [Example 147, 3-(4-((3,3-dideuterio-5-chloro-2,2-dimethyl-2,3-dihydrobenzofuran-7-yl)methoxy)-3-(trifluoromethyl)phenyl)-2-methylpropanoic acid]	138.65
[2H]C([2H])(C(=O)O)C([2H])([2H])c1ccc(OCc2cc(Cl)cc3c2OC(C)(C)C3)c(F)c1 [Example 241, 3-(4-((5-chloro-2,2-dimethyl-2,3-dihydrobenzofuran-7-yl)methoxy)-3-fluorophenyl)-2,2,3,3-tetradeuteriopropanoic acid]	159.62
CC1(C)Cc2cc(F)cc(COc3c(F)cc(CC4CC4C(=O)O)cc3F)c2O1 (stereo not shown) [Example 184, 2-(3,5-difluoro-4-((5-fluoro-2,2-dimethyl-2,3-dihydrobenzofuran-7-yl)methoxy)benzyl)cyclopropanecarboxylic acid]	97.04
COc1cc(CCC(=O)O)ccc1OCc1cc(F)cc2c1OC(C)(C)C2 [Example 173, 3-(4-((5-fluoro-2,2-dimethyl-2,3-dihydrobenzofuran-7-yl)methoxy)-3-methoxyphenyl)propanoic acid]	159.06
CC(CCc1ccc(OCc2cc(F)cc3c2OC(C)(C)C3)cc1)C(=O)O (stereo not shown) [Example 171, 4-(4-((5-fluoro-2,2-dimethyl-2,3-dihydrobenzofuran-7-yl)methoxy)phenyl)-2-methylbutanoic acid]	98.97
CC(=O)NCCOC(=O)C(C)Cc1ccc(OCc2cc(Cl)cc3c2OC(C)(C)C3)c(C(F)(F)F)c1 (stereo not shown) [Example 126, 2-acetamidoethyl 3-(4-((5-chloro-2,2-dimethyl-2,3-dihydrobenzofuran-7-yl)methoxy)-3-(trifluoromethyl)phenyl)-2-methylpropanoate]	47.02

same assay, conditions: human GPR120 stably expressing cells, eight concentrations from 0.00001 to 20 μM

SMILES	EC50 [µM]
COc1cc(CCC(=O)O)c(Br)cc1OCc1cc(F)cc2c1OC(C)(C)C2 [Example 56, 3-(2-bromo-4-((5-fluoro-2,2-dimethyl-2,3-dihydrobenzofuran-7-yl)methoxy)-5-methoxyphenyl)propanoic acid]	1 to 10
CC1(C)Cc2c(C(F)(F)F)ccc(COc3c(F)cc(C4CC4C(=O)O)cc3F)c2O1 (stereo not shown) [Example 31, 2-(4-((2,2-dimethyl-4-(trifluoromethyl)-2,3-dihydrobenzofuran-7-yl)methoxy)-3,5-difluorophenyl)cyclopropanecarboxylic acid]	1 to 10
COc1cccc(-c2cc(COc3ccc(CC(C)C(=O)O)cc3)c3c(c2)CC(C)(C)O3)c1 (stereo not shown) [Example 86, 3-(4-((5-(3-methoxyphenyl)-2,2-dimethyl-2,3-dihydrobenzofuran-7-yl)methoxy)phenyl)-2-methylpropanoic acid]	1 to 10
COc1cc(OCc2cc(Cl)cc3c2OC(C)(C)C3)ccc1CCC(=O)O [Example 55, 3-(4-((5-chloro-2,2-dimethyl-2,3-dihydrobenzofuran-7-yl)methoxy)-2-methoxyphenyl)propanoic acid]	1 to 10
CCN(CC)c1cc(COc2ccc(CC(C)C(=O)O)cc2)c2c(c1)CC(C)(C)O2 (stereo not shown) [Example 89, 3-(4-((5-(diethylamino)-2,2-dimethyl-2,3-dihydrobenzofuran-7-yl)methoxy)phenyl)-2-methylpropanoic acid]	1 to 10
CC(Cc1ccc(NCc2cc(F)cc3c2OC(C)(C)C3)cc1)C(=O)O (stereo not shown) [Example 67]	1 to 10
CC1(C)Cc2cc(Cl)cc(COc3ccc(CCC(=O)O)c(F)c3)c2O1 [Example 53, 3-(4-((5-chloro-2,2-dimethyl-2,3-dihydrobenzofuran-7-yl)methoxy)-2-fluorophenyl)-propanoic acid]	1 to 10
CCc1cc(OCc2cc(F)cc3c2OC(C)(C)C3)ccc1/C=C/C(=O)O [Example 60, (E)-3-(2-ethyl-4-((5-fluoro-2,2-dimethyl-2,3-dihydrobenzofuran-7-yl)methoxy)phenyl)acrylic acid]	1 to 10
CC(=O)NCCOC(=O)C(C)Cc1ccc(OCc2cc(Cl)cc3c2OC(C)(C)C3)c(C(F)(F)F)c1 (stereo not shown) [Example 126, 2-acetamidoethyl 3-(4-((5-chloro-2,2-dimethyl-2,3-dihydrobenzofuran-7-yl)methoxy)-3-(trifluoromethyl)phenyl)-2-methylpropanoate]	1 to 10

same assay, conditions: typical value, reference compound

SMILES	concentration at which activity reached a maximum
CC1(C)Cc2cccc(COc3c(F)cc(CCC(=O)O)cc3F)c2O1 [Example 25, 3-(4-((2,2-dimethyl-2,3-dihydrobenzofuran-7-yl)methoxy)-3,5-difluorophenyl)propanoic acid]	approximately 2.5 μM
